Activity calls are given as the source filed them. The rule behind the calls is not given here.
How the values were obtained:
[1] = molecular target: T1, Aurora kinase A (Homo sapiens) (UniProt O14965); experiment: Inhibition of AurA K2 labeling site harbouring VIHRDIKPENLLLGSAGELK in human Huh-7 cells at 10 uM by KiNativ Profiling analysis relative to control; type: cell-based
T1 sequence (whole entry): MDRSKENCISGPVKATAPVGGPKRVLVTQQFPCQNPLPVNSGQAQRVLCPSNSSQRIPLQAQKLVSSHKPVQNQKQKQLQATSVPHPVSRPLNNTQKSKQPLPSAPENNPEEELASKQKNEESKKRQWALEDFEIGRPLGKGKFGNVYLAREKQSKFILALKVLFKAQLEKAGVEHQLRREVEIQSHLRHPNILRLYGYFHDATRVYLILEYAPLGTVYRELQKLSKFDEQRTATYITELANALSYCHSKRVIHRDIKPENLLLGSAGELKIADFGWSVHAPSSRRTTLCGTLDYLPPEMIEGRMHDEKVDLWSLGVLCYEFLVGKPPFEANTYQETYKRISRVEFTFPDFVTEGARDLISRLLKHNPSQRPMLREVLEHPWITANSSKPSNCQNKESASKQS

[2] = molecular target: Serine/threonine-protein kinase 16 (Homo sapiens) (UniProt O75716); experiment: Inhibition of MPSK1 Lys2 labeling site in human Huh-7 cell lysate at 1 uM by KiNativ Profiling analysis relative to control; type: subcellular
Chain of Serine/threonine-protein kinase 16 (Homo sapiens) (O75716 whole entry): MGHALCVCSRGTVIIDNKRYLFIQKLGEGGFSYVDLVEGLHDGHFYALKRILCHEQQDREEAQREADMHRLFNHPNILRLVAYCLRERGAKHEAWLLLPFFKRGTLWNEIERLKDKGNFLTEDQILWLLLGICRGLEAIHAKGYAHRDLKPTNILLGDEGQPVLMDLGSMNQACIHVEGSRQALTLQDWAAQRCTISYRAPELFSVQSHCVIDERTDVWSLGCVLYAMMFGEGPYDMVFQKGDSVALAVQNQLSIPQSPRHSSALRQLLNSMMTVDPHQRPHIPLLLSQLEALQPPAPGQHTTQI

[3] = molecular target: T2, Serine/threonine-protein kinase 3 (Homo sapiens) (UniProt Q13188); experiment: Inhibition of MST2 Lys2 labeling site harbouring IHRDIKAGNILLNTEGHAK in human Huh-7 cell lysate at 1 uM by KiNativ Profiling analysis relative to control; type: subcellular
T2 sequence (whole entry): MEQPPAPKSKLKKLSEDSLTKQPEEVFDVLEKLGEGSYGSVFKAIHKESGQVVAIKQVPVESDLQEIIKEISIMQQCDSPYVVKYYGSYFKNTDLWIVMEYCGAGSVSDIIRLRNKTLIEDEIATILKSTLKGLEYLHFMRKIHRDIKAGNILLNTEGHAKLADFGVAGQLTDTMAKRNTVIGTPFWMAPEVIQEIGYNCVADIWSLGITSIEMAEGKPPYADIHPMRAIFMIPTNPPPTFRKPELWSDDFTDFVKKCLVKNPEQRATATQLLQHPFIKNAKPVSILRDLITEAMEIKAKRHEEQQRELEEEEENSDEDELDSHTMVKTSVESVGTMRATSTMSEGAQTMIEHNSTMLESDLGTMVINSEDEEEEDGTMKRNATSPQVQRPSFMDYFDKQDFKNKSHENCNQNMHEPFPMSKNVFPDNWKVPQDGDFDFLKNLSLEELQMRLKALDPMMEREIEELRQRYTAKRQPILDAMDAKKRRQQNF

[4] = molecular target: T3, Phosphatidylinositol 5-phosphate 4-kinase type-2 gamma (Homo sapiens) (UniProt Q8TBX8); experiment: Inhibition of PIP4K2C ATP labeling site harbouring VKELPTLK in human A-375 cells at 0.05 uM by KiNativ Profiling analysis relative to control; type: cell-based
T3 sequence (whole entry): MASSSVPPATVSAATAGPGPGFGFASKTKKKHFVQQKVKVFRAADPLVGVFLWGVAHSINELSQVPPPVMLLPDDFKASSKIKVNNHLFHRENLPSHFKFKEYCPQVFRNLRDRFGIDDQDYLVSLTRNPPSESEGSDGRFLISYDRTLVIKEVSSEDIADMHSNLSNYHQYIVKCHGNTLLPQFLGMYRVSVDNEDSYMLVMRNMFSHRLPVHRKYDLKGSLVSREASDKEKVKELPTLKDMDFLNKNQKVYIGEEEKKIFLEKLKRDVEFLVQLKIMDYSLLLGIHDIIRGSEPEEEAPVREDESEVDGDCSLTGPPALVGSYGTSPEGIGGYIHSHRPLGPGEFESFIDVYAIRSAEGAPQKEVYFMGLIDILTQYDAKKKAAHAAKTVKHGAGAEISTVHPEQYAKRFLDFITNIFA

[5] = molecular target: Insulin receptor (Homo sapiens) (UniProt P06213); experiment: Inhibition of INSR (unknown origin) at 1 uM by Ambit Kinomescan binding assay relative to control; values are per cent of control
Chain of Insulin receptor (Homo sapiens) (P06213 28-758 limits assumed): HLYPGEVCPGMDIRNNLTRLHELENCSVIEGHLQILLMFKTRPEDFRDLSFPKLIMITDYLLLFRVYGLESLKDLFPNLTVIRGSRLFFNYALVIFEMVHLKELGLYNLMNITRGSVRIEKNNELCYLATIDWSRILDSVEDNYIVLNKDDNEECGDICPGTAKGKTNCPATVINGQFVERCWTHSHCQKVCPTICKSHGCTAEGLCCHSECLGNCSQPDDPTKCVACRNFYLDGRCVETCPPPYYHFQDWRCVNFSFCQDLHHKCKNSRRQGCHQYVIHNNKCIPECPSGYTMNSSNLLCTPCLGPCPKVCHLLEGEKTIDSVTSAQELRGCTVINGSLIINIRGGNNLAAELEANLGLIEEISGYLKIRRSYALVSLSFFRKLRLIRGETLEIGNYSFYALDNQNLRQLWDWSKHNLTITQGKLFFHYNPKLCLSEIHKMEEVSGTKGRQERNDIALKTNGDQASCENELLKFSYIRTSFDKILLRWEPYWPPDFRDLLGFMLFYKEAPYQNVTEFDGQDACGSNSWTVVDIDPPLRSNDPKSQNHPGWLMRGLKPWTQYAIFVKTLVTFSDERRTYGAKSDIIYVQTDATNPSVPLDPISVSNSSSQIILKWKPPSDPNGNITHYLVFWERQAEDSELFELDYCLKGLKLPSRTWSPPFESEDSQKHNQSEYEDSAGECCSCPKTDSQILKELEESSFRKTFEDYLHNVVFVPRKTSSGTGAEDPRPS
Chain of Insulin receptor (Homo sapiens) (P06213 763-1382 limits assumed): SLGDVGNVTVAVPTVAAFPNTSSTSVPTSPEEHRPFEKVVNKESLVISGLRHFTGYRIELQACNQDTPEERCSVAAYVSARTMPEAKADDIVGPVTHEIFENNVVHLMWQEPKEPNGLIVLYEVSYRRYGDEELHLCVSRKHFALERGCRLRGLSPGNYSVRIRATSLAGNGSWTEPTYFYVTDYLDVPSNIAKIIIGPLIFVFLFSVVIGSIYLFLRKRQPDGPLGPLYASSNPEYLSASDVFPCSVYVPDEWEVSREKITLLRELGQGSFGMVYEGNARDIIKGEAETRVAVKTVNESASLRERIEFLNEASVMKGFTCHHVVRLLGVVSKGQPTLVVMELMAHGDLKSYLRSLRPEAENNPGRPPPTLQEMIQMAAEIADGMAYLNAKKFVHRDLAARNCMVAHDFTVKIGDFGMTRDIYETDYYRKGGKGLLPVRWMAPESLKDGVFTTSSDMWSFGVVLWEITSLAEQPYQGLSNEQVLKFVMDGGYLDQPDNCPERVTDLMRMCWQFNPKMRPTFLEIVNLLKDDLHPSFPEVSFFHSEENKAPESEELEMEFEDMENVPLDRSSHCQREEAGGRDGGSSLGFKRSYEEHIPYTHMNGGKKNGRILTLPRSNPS

[6] = molecular target: Cyclin-dependent kinase 11A (Homo sapiens) (UniProt Q9UQ88); experiment: Inhibition of CDC2L2 (unknown origin) at 1 uM by Ambit Kinomescan binding assay relative to control; values are per cent of control
Chain of Cyclin-dependent kinase 11A (Homo sapiens) (Q9UQ88 whole entry): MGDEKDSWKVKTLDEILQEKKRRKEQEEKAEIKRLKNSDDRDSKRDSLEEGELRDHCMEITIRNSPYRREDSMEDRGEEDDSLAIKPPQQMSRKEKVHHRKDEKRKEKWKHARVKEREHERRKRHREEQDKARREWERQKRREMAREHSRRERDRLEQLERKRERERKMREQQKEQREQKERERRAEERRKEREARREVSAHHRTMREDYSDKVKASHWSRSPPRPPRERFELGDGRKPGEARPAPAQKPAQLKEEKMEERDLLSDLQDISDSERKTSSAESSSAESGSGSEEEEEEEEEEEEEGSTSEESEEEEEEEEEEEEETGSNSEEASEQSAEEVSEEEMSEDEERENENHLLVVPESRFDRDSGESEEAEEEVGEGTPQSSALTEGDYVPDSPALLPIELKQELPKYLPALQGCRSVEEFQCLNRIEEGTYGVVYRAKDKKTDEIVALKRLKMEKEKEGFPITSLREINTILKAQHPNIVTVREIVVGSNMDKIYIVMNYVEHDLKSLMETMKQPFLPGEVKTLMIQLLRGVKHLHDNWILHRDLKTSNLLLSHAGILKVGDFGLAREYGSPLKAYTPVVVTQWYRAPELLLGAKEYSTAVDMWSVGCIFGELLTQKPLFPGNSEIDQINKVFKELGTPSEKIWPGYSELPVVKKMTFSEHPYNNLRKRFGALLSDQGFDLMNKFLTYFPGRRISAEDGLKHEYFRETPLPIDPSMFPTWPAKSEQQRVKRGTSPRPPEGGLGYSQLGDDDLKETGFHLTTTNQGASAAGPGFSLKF

[7] = molecular target: T4, Serine/threonine-protein kinase TAO1 (Homo sapiens) (UniProt Q7L7X3); experiment: Inhibition of TAO1 Lys2 labeling site in human A-375 cells at 5 uM by KiNativ Profiling analysis relative to control; type: cell-based
T4 sequence (whole entry): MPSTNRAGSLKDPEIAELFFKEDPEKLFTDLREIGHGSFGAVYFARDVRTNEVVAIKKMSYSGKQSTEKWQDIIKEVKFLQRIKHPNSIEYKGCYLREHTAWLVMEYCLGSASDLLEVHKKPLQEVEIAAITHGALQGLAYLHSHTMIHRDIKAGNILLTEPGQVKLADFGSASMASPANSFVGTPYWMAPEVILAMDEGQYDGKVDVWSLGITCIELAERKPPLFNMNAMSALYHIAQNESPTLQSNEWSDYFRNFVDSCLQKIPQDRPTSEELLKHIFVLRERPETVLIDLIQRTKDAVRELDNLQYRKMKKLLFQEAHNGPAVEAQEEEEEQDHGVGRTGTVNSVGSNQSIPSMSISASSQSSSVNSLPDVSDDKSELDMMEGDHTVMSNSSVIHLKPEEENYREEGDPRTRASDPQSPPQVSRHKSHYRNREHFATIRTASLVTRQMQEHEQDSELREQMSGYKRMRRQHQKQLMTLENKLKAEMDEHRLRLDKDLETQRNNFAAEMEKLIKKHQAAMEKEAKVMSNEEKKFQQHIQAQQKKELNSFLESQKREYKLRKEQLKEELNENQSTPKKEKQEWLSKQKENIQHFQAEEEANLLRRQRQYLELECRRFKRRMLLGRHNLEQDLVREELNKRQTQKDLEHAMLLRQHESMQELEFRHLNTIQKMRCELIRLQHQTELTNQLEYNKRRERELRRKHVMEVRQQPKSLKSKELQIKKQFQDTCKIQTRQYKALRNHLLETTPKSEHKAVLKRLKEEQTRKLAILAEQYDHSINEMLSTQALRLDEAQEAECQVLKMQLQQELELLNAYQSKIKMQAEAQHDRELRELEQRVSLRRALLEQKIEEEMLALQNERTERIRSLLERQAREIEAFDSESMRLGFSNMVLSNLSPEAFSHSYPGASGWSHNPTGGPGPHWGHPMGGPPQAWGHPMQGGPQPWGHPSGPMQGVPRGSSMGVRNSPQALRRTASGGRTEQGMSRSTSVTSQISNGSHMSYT

[8] = tested on: Receptor-type tyrosine-protein kinase FLT3 (Homo sapiens), P36888 [UNDEFINED MUTATION]; experiment: Inhibition of FLT3 ITD mutant (unknown origin) at 1 uM by Ambit Kinomescan binding assay relative to control; values are per cent of control
Chain of Receptor-type tyrosine-protein kinase FLT3 (Homo sapiens), P36888 [UNDEFINED MUTATION] (P36888 whole entry, looked up, change not shown): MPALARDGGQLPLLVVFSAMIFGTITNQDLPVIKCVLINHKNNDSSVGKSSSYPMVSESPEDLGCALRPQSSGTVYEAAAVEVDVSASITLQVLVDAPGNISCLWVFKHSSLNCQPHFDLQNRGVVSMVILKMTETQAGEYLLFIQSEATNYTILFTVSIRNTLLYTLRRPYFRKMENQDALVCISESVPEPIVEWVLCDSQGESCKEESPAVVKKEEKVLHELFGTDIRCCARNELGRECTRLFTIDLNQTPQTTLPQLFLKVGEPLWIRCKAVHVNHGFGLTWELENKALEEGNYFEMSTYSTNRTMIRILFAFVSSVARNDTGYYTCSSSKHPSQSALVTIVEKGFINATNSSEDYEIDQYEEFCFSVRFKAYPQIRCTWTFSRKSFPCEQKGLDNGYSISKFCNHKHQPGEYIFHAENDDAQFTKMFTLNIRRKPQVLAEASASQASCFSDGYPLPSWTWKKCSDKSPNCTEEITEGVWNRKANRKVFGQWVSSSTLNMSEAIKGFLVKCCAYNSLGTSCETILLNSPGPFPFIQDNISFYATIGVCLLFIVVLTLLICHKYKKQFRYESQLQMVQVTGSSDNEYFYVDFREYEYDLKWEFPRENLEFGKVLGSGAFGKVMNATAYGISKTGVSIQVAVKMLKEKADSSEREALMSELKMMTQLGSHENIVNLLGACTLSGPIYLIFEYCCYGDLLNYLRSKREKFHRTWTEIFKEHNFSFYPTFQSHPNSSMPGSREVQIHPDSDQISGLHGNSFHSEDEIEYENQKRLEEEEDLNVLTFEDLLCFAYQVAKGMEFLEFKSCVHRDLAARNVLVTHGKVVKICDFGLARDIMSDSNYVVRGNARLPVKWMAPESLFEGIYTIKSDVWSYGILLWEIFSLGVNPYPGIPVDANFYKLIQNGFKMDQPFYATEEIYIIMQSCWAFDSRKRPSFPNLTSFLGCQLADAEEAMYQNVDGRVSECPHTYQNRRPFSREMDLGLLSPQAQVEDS

**Q.** For `CCN1CCN(Cc2ccc(NC(=O)c3ccc(C)c(Oc4ccnc5[nH]ccc45)c3)cc2C(F)(F)F)CC1`, which inhibition [1] is on record?
**A.** inactive

**Q.** What does the source list for `CNc1cc(Oc2cc(C(=O)Nc3cc(N4CCN(C)CC4)cc(C(F)(F)F)c3)ccc2C)ncn1`?
**A.** inhibition [2]: 4.6%; inhibition [3]: 14.4%

**Q.** `CCN1CCN(Cc2ccc(NC(=O)c3ccc(C)c(/C=C/c4cnc5[nH]ccc5c4OC)c3)cc2C(F)(F)F)CC1` was tested. Which inhibition [4] did it give?
**A.** -8.6%

**Q.** And the residual activity [5]?
**A.** 78%

**Q.** What about the residual activity [6] of the same compound?
**A.** 70%

**Q.** What about the inhibition [7] of the same compound?
**A.** 66.2%

**Q.** What about the residual activity [8] of the same compound?
**A.** 1.4%
